According to patent US4354039A, “Chlorocitric acids” (Hoffmann-La Roche Inc., priority 1981, dated 1982):

Experiments:
[1] = Food intake in dogs, pyramiding oral doses (Examples 26 and 27); type: in vivo, beagle dogs
Description: Twelve beagle dogs of both sexes weighing 7.6-12.2 kg were used for this test. The test compounds were contained in gelatin capsules for oral administration to two dogs of each sex. The animals were weighed and food consumption calculated daily excluding weekends throughout the test period. Each animal received 800 grams of diet daily consisting of 400 grams of Wayne pellet dog food mixed with 400 ml distilled water. The animals received pyramiding oral doses of the test compound over the three week period. On Monday and Tuesday of the first week the animals were weighed and food consumption was recorded (control). […] Doses of 30, 100 and 300 mg/kg were administered on Monday, Wednesday and Friday respectively during the second week. A final dose of 1000 mg/kg was administered on Monday of the third week.
Food intake was determined by the procedure at pyramiding doses described in EXAMPLE 26.

[2] = Total body fat in meal-fed rats, oral, 17 day study (Example 22); type: in vivo, Charles River female rats; conditions: Chow, 17 days
Description: Two month old Charles River female rats (Charles River Breeding Laboratories, Wilmington, Mass.) were individually housed in wire-bottomedcages in a temperature-regulated (22° C.) light-controlled room (12 hr light, 6 a.m. to 6 p.m. and 12 hr dark, 6 p.m. to 6 a.m.). […] On the 8th day, the animals were administered water or (-)-threo-chlorocitric acid at the indicated concentration by oral intubation 30 min before the 3 hr meal. Treatment was continued for 17 days. Food cups were weighed immediately after the meal. After 17 days of treatment, rats were killed by decapitation and blood was removed. […] C. Sullivan, et al, Am. J. Clinical Nutrition, 30 767 (1977). […] Total carcass and lipid data are expressed in grams and percentages of carcass weight.

[3] = Body composition of meal-fed rats, 16 day study (Example 20); type: in vivo, Charles River female rats; conditions: in words
Description: Two month old Charles River female rats (Charles River Breeding Laboratories, Wilmington, Mass.) were individually housed in wire-bottomedcages in a temperature-regulated (22° C.) light-controlled room (12 hr light, 6 a.m. to 6 p.m. and 12 hr dark, 6 p.m. to 6 a.m.). […] (1) control, (2) (-)-threo-chlorocitric acid (1.0 mmoles/kg, 227 mg/kg) administered by oral intubation 30 min before the 3 hr meal, and (3) (-)-threo-chlorocitric acid (1.1 mmoles/kg, 250 mg/kg as a dietary admixture for the 3 hr meal. Treatment was continued for 16 days. After 16 days of treatment, rats were killed by decapitation and blood was removed. […] C. Sullivan, et al, Am. J. Clinical Nutrition, 30 767 (1977). […] Total carcass lipid data are expressed in grams and percentages of carcass weight. An aliquot of saponified carcass extract was neutralized and total carcass nitrogen was determined using the Kjeldahl procedure described in "Hawks" Physiological Chemistry," B. L. Oser, ed., McGraw Book Co., New York, N.Y., 1965, page 1214. Carcass protein data are expressed in grams and percentages of carcass weight.

[4] = test day 8, dose 100 mg/kg oral
[5] = test day 10, dose 300 mg/kg oral
[6] = test day 13, dose 1000 mg/kg oral

O=C(O)C[C@@](O)(C(=O)O)[C@@H](Cl)C(=O)O [(-)-threo-Chlorocitric acid]
Food Consumption ([1]; test day 1, dose 3 mg/kg oral): 450 ± 165 g
Food Consumption, % of control ([1]; test day 1, dose 3 mg/kg oral): 60 % of control
Food Consumption ([1]; test day 2, no dose): 646 ± 83 g
Food Consumption, % of control ([1]; test day 2, no dose): 87 % of control
Food Consumption ([1]; test day 3, dose 10 mg/kg oral): 440 ± 121 g
Food Consumption, % of control ([1]; test day 3, dose 10 mg/kg oral): 59 % of control
Food Consumption ([1]; test day 6, dose 30 mg/kg oral): 406 ± 86 g
Food Consumption, % of control ([1]; test day 6, dose 30 mg/kg oral): 55 % of control
Food Consumption ([1]; test day 7, no dose): 668 ± 115 g
Food Consumption, % of control ([1]; test day 7, no dose): 90 % of control
Food Consumption [1, 4]: 142 ± 38 g
Food Consumption, % of control [1, 4]: 19 % of control
Food Consumption ([1]; test day 9, no dose): 619 ± 62 g
Food Consumption, % of control ([1]; test day 9, no dose): 83 % of control
Food Consumption [1, 5]: 55 ± 39 g
Food Consumption, % of control [1, 5]: 7 % of control
Food Consumption [1, 6]: 56 ± 22 g
Food Consumption, % of control [1, 6]: 8 % of control
Food Consumption ([1]; test day 14, no dose): 439 ± 163 g
Food Consumption, % of control ([1]; test day 14, no dose): 59 % of control
Food Consumption ([1]; test day 15, no dose): 583 ± 149 g
Food Consumption, % of control ([1]; test day 15, no dose): 78 % of control
Food Consumption ([1]; test day 16, no dose): 600 ± 76 g
Food Consumption, % of control ([1]; test day 16, no dose): 81 % of control
Food Consumption ([1]; test day 17, no dose): 677 ± 73 g
Food Consumption, % of control ([1]; test day 17, no dose): 91 % of control
Food Consumption ([1]; test day 21, no dose): 644 ± 100 g
Food Consumption, % of control ([1]; test day 21, no dose): 87 % of control
Food Consumption ([1]; test day 22, no dose): 800 ± 0 g
Food Consumption, % of control ([1]; test day 22, no dose): 108 % of control
Food Consumption ([1]; test day 23, no dose): 596 ± 121 g
Food Consumption, % of control ([1]; test day 23, no dose): 80 % of control
Food Consumption ([1]; test day 24, no dose): 695 ± 79 g
Food Consumption, % of control ([1]; test day 24, no dose): 94 % of control
Food Consumption ([1]; test day 27, no dose): 732 ± 68 g
Food Consumption, % of control ([1]; test day 27, no dose): 99 % of control
Food Consumption ([1]; test day 28, no dose): 775 ± 26 g
Food Consumption, % of control ([1]; test day 28, no dose): 104 % of control
Carcass Lipid % carcass, % of control ([2]; 0.25 mmoles (57 mg)/kg oral): 99 % of control
Carcass Lipid total, % of control ([2]; 0.25 mmoles (57 mg)/kg oral): 101 % of control
Carcass Lipid, % carcass ([2]; 0.25 mmoles (57 mg)/kg oral): 4.56 ± 0.42 % carcass
Carcass Lipid, total ([2]; 0.25 mmoles (57 mg)/kg oral): 9.64 ± 0.80 g
Carcass Weight ([2]; 0.25 mmoles (57 mg)/kg oral): 213 ± 4 g
Carcass Lipid % carcass, % of control ([2]; 0.50 mmoles (114 mg)/kg oral): 58 % of control
Carcass Lipid total, % of control ([2]; 0.50 mmoles (114 mg)/kg oral): 50 % of control
Carcass Lipid, % carcass ([2]; 0.50 mmoles (114 mg)/kg oral): 2.70 ± 0.17 % carcass
Carcass Lipid, total ([2]; 0.50 mmoles (114 mg)/kg oral): 4.80 ± 0.48 g
Carcass Weight ([2]; 0.50 mmoles (114 mg)/kg oral): 173 ± 4 g
Carcass Lipid % carcass, % of control ([2]; 1.00 mmoles (227 mg)/kg oral): 52 % of control
Carcass Lipid total, % of control ([2]; 1.00 mmoles (227 mg)/kg oral): 41 % of control
Carcass Lipid, % carcass ([2]; 1.00 mmoles (227 mg)/kg oral): 2.40 ± 0.22 % carcass
Carcass Lipid, total ([2]; 1.00 mmoles (227 mg)/kg oral): 3.92 ± 0.37 g
Carcass Weight ([2]; 1.00 mmoles (227 mg)/kg oral): 163 ± 7 g
weight loss, carcass analysis [3]: weight loss was due to reduction in body lipids
